For experiment [1], the target named is T1, 3-hydroxy-3-methylglutaryl-coenzyme A reductase (Rattus norvegicus) (UniProt P51639).
T1 sequence (whole entry): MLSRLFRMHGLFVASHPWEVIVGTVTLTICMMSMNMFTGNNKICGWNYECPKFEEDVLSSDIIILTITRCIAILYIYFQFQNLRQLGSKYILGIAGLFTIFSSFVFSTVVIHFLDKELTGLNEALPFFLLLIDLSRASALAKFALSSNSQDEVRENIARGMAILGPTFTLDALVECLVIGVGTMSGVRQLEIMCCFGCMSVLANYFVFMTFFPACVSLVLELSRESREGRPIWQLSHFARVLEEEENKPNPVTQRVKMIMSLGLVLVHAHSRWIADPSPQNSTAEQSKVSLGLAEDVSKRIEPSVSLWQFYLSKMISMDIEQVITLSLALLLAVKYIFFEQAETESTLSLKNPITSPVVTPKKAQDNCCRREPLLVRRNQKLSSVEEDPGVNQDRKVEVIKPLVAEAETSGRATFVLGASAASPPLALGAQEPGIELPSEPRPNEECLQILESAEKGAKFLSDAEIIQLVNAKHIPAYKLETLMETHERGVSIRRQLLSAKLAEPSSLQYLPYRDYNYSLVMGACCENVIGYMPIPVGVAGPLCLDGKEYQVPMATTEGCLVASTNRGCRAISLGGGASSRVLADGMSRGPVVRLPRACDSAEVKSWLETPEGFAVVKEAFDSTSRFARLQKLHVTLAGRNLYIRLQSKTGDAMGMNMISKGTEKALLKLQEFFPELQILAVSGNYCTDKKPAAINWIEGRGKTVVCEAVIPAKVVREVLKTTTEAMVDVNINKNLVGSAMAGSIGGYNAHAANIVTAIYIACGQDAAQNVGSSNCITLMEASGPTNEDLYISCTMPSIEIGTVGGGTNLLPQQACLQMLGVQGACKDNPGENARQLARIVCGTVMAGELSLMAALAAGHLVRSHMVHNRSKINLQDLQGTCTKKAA
Put plainly: In vitro rat HMG-CoA reductase inhibitory activity required to inhibit sterol synthesis in cell free system with pravastatin as reference compound.

Experiment [2] has as its target T2, 3-hydroxy-3-methylglutaryl-coenzyme A reductase (Homo sapiens) (UniProt P04035).
T2 sequence (whole entry): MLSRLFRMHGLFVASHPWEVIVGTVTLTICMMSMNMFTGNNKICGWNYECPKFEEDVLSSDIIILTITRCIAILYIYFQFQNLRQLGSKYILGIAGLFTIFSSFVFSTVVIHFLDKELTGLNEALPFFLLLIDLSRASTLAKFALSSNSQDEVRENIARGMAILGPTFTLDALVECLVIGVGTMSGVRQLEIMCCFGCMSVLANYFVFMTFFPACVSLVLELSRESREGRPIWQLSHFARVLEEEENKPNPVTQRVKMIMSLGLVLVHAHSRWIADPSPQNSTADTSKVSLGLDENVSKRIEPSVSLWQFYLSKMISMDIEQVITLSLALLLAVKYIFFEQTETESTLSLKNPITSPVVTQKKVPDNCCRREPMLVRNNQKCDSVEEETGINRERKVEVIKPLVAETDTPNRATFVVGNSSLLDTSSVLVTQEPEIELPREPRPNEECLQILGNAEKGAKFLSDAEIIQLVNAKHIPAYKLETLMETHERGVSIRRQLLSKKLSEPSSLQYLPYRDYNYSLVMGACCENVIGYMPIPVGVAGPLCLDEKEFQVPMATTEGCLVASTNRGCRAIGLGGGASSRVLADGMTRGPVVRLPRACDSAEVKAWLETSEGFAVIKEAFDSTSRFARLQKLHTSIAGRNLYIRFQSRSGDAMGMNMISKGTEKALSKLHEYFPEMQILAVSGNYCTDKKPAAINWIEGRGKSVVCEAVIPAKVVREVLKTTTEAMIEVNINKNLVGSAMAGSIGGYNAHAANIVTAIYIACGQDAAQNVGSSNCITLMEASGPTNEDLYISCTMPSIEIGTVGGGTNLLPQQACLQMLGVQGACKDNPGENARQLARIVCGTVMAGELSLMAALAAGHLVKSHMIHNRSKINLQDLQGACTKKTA
The experiment is described as follows: In vitro HMG-CoA reductase inhibitory activity required to inhibit cellular steroidgenesis in Hep G2 cells (human hepatoma cell line) with pravastatin as reference compound. In kind it is cell-based. To be noted: HepG2.

Experiment [3] deals with T1, 3-hydroxy-3-methylglutaryl-coenzyme A reductase (Rattus norvegicus). Put plainly: In vivo hepatic cholesterol synthesis inhibitory activity in male Sprague-Dawley rat after oral administration at a concentration of 2.0 mg/kg. In kind it is functional, organism-based. Further details: dose 2 mg/kg.
The target is the same in experiment [4]. Put plainly: In vivo hepatic cholesterol synthesis inhibitory activity in male Sprague-Dawley rat after oral administration at a concentration of 0.2 mg/kg. In kind it is functional, organism-based. On the set-up: dose 0.2 mg/kg.

Turning to `CC(C)c1nc2cc(C(C)(C)C)nn2c(-c2ccc(F)cc2)c1/C=C/[C@@H](O)C[C@@H](O)CC(=O)O`, the Relative potency in experiment [1] is 4; in experiment [2], less than 1.

For the compound `Cc1noc2nc(C(C)C)c(/C=C/[C@@H](O)C[C@@H](O)CC(=O)O)c(-c3ccc(F)cc3)c12`, the Relative potency in experiment [1] worked out at 170; in experiment [2], 1.

By inhibition is commonly meant the relative decrease from the control value, in per cent. As to `Cc1nn(C(C)(C)C)c2nc(C3CC3)c(/C=C/[C@@H](O)C[C@@H](O)CC(=O)O)c(-c3ccc(F)cc3)c12`, the Relative potency in experiment [1] worked out at 168; in experiment [2] it was 11. Moreover, the inhibition is 72.2% in experiment [3] and 4.5% in experiment [4].

For the compound `Cc1c2c(-c3ccc(F)cc3)c(/C=C/[C@@H](O)C[C@@H](O)CC(=O)O)c(C(C)C)nc2nn1-c1ccccc1`, the Relative potency in experiment [1] is 162; in experiment [2], 12.

With `Cc1nn2c(-c3ccc(F)cc3)c(/C=C/[C@@H](O)C[C@@H](O)CC(=O)O)c(C3CC3)nc2c1C`, the Relative potency in experiment [1] turned out to be 25; in experiment [2], 3.

Take `Cc1cc2nc(C3CC3)c(/C=C/[C@@H](O)C[C@@H](O)CC(=O)O)c(-c3ccc(F)cc3)n2n1`: the Relative potency in experiment [1] was found to be 24; in experiment [2], 2. Besides, the inhibition in experiment [3] turned out to be 6.5%.

With `CC(C)c1nc2c(c(C3CC3)nn2-c2ccccc2)c(-c2ccc(F)cc2)c1/C=C/[C@@H](O)C[C@@H](O)CC(=O)O`, the values for the Relative potency in experiment [1] and in experiment [2] were 55 and 7, respectively.

Consider `O=C(O)C[C@H](O)C[C@H](O)/C=C/c1c(C2CC2)nc2sc3c(c2c1-c1ccc(F)cc1)CCC3`, for which the Relative potency in experiment [1] was determined as 63; in experiment [2], 60.

For `CC(C)(C)n1nc(-c2ccccc2)c2c(-c3ccc(F)cc3)c(/C=C/[C@@H](O)C[C@@H](O)CC(=O)O)c(C3CC3)nc21`, the values for the Relative potency in experiment [1] and in experiment [2] were 75 and less than 1, respectively.

For the compound `CCn1ncc2c(-c3ccc(F)cc3)c(/C=C/[C@@H](O)C[C@@H](O)CC(=O)O)c(C(C)C)nc21`, the Relative potency in experiment [1] was 71; in experiment [2], 39.

For `CC(C)c1cc2nc(C3CC3)c(/C=C/[C@@H](O)C[C@@H](O)CC(=O)O)c(-c3ccc(F)cc3)n2n1`, the Relative potency is 6 in experiment [1] and 1 in experiment [2]. Also, in experiment [4], the inhibition amounted to 21.8%.

Consider `Cc1nn(-c2ccccc2)c2nc(C(C)C)c(/C=C/[C@@H](O)C[C@@H](O)CC(=O)O)c(-c3ccc(F)cc3)c12`, for which the Relative potency in experiment [1] worked out at 264; in experiment [2], 1. Also, the inhibition came out at 19.9% in experiment [3] and 3.3% in experiment [4].

As to `CC(C)c1nc2c(cnn2-c2ccccc2)c(-c2ccc(F)cc2)c1/C=C/[C@@H](O)C[C@@H](O)CC(=O)O`, the Relative potency turned out to be 228 in experiment [1] and 10 in experiment [2].

For `Cc1cc2c(-c3ccc(F)cc3)c(/C=C/[C@@H](O)C[C@@H](O)CC(=O)O)c(C(C)C)nc2s1`, the Relative potency in experiment [1] was determined as 68; in experiment [2] it was 22. In addition, the inhibition in experiment [3] amounted to 34.2%.

On to `Cc1nn(C(C)(C)C)c2nc(C(C)C)c(/C=C/[C@@H](O)C[C@@H](O)CC(=O)O)c(-c3ccc(F)cc3)c12`, for which the results for the Relative potency in experiment [1] and in experiment [2] were 100 and 31, respectively. The inhibition in experiment [3] was determined as 86%; in experiment [4], 51.8%.

On to `CC(C)c1nc2c(c(-c3ccccc3)nn2C)c(-c2ccc(F)cc2)c1/C=C/[C@@H](O)C[C@@H](O)CC(=O)O`, for which the Relative potency in experiment [1] is 21; in experiment [2] it was 6. Further, the figures for the inhibition in experiment [3] and in experiment [4] were 71.1% and 37%, respectively.

Regarding `CC(C)c1nc2sc3c(c2c(-c2ccc(F)cc2)c1/C=C/[C@@H](O)C[C@@H](O)CC(=O)O)CCCC3`, the Relative potency in experiment [1] was 48; in experiment [2], 19.

In the case of `CC(C)c1nc2cc(-c3ccco3)nn2c(-c2ccc(F)cc2)c1/C=C/[C@@H](O)C[C@@H](O)CC(=O)O`, the Relative potency in experiment [1] is 13; in experiment [2] it was less than 1.

`Cc1nn(-c2ccccn2)c2nc(C3CC3)c(/C=C/[C@@H](O)C[C@@H](O)CC(=O)O)c(-c3ccc(F)cc3)c12`: the Relative potency in experiment [1] came to 229; in experiment [2] it was 4.

For the compound `Cc1nn(C)c2nc(C(C)C)c(/C=C/[C@@H](O)C[C@@H](O)CC(=O)O)c(-c3ccc(F)cc3)c12`, the Relative potency came out at 71 in experiment [1] and 15 in experiment [2]. Moreover, the inhibition in experiment [3] came to 48.1%; in experiment [4] it was 41.1%.

In the case of `O=C(O)C[C@H](O)C[C@H](O)/C=C/c1c(C2CC2)nc2sc3c(c2c1-c1ccc(F)cc1)CCCCC3`, the results for the Relative potency in experiment [1] and in experiment [2] were 23 and 2, respectively.

As to `Cc1cc2nc(C(C)C)c(/C=C/[C@@H](O)C[C@@H](O)CC(=O)O)c(-c3ccc(F)cc3)n2n1`, the Relative potency came to 27 in experiment [1] and 3 in experiment [2]. Also, the inhibition in experiment [4] is -6.1%.

On to `Cc1nn2c(-c3ccc(F)cc3)c(/C=C/[C@@H](O)C[C@@H](O)CC(=O)O)c(C3CC3)nc2c1-c1ccccc1`, for which the Relative potency in experiment [1] worked out at 64; in experiment [2], 3.

For the compound `Cn1nc(-c2ccccc2)c2c(-c3ccc(F)cc3)c(/C=C/[C@@H](O)C[C@@H](O)CC(=O)O)c(C3CC3)nc21`, the values for the Relative potency in experiment [1] and in experiment [2] were 300 and 14, respectively. Moreover, the inhibition in experiment [3] was 11.5%.

In the case of `CC(C)c1cc2c(-c3ccc(F)cc3)c(/C=C/[C@@H](O)C[C@@H](O)CC(=O)O)c(C(C)C)nc2s1`, the Relative potency in experiment [1] worked out at 52; in experiment [2], 62.

Turning to `Cc1sc2nc(C(C)C)c(/C=C/[C@@H](O)C[C@@H](O)CC(=O)O)c(-c3ccc(F)cc3)c2c1-c1ccccc1`, the results for the Relative potency in experiment [1] and in experiment [2] were 1 and less than 1, respectively.

As to `CC(C)c1nc2c(c(-c3ccc(Cl)cc3)nn2C)c(-c2ccc(F)cc2)c1/C=C/[C@@H](O)C[C@@H](O)CC(=O)O`, the Relative potency was 93 in experiment [1] and 26 in experiment [2].

Take `CC(C)c1nc2sc3c(c2c(-c2ccc(F)cc2)c1/C=C/[C@@H](O)C[C@@H](O)CC(=O)O)CCC3`: the results for the Relative potency in experiment [1] and in experiment [2] were 58 and 49, respectively.

Turning to `CC(C)(C)n1nc(C2CC2)c2c(-c3ccc(F)cc3)c(/C=C/[C@@H](O)C[C@@H](O)CC(=O)O)c(C3CC3)nc21`, the Relative potency in experiment [1] stood at 98; in experiment [2], 2.

Regarding `CC(C)c1nc2sc(-c3ccccc3)cc2c(-c2ccc(F)cc2)c1/C=C/[C@@H](O)C[C@@H](O)CC(=O)O`, the Relative potency in experiment [1] was less than 1; in experiment [2], 1.

Turning to `COc1ccc(-n2nc(C)c3c(-c4ccc(F)cc4)c(/C=C/[C@@H](O)C[C@@H](O)CC(=O)O)c(C(C)C)nc32)cc1`, the figures for the Relative potency in experiment [1] and in experiment [2] were 154 and 149, respectively. Further, in experiment [3], the inhibition turned out to be 48.7%.

Turning to `CCc1c(C)sc2nc(C3CC3)c(/C=C/[C@@H](O)C[C@@H](O)CC(=O)O)c(-c3ccc(F)cc3)c12`, the Relative potency stood at 65 in experiment [1] and 38 in experiment [2].

For `CC(C)c1nc2c3c(nn2c(-c2ccc(F)cc2)c1/C=C/[C@@H](O)C[C@@H](O)CC(=O)O)CCCC3`, the values for the Relative potency in experiment [1] and in experiment [2] were 30 and 1, respectively.

The values are drawn from ChEMBL document CHEMBL1134061, “Synthesis and biological evaluations of condensed pyridine and condensed pyrimidine-based HMG-CoA reductase inhibitors” (Bioorg Med Chem Lett, 2001).
